According to ChEMBL document CHEMBL5247589, “Natural occurrence, bioactivity, and biosynthesis of triene-ansamycins” (Eur J Med Chem, 2022):

Tests used:
Format in all cases: functional, cell-based
[1] = test system: HeLa; assay: Antiproliferative activity against human HeLa cells incubated for 72 hrs by absorbance based assay
[2] = test system: NCI-H1299; assay: Antiproliferative activity against human H1299 cells incubated for 72 hrs by absorbance based assay; conditions: NCI-H1299, 72 h
[3] = test system: SW1990; assay: Antitumor activity against human SW1990 cells assessed as cell growth inhibition incubated for 48 hrs by CCK-8 assay; conditions: SW1990, 48 h
[4] = test system: PANC-1; assay: Antitumor activity against human PANC-1 cells assessed as cell growth inhibition incubated for 48 hrs by CCK-8 assay; conditions: PANC-1, 48 h
[5] = test system: HeLa; assay: Antitumor activity against human HeLa cells assessed as cell growth inhibition incubated for 72 hrs by MTT assay

C/C1=C/CCc2cc(O)cc(c2)NC(=O)C[C@@H](O)/C=C/C=C/C=C/C[C@H](O)[C@H](C)[C@H]1O
IC50 [1]: 10 µM | IC50 [2]: > 10 µM

CO[C@@H]1CC(=O)Nc2c(O)c3cc4c2[C@@H](/C=C/C=C/C[C@H](OC(=O)[C@@H](C)NC(=O)C2CCCCC2)[C@H](C)[C@@H](O)/C(C)=C\CC3)[C@@H]1O4
IC50 [3]: 5.81 µM | IC50 [4]: 5.81 µM

CO[C@H]1/C=C/C=C/C=C/C[C@H](O)[C@H](C)[C@@H](O)/C(C)=C\CCc2c(O)c(cc3ncsc23)NC(=O)C1
IC50 [1]: 10 µM | IC50 [2]: > 10 µM

CO[C@@H]1CC(=O)Nc2c(O)c3cc4c2[C@@H](/C=C/C=C/C[C@H](OC(=O)[C@@H](C)NC(=O)C2CCCCC2)[C@H](C)[C@@H](O)/C(C)=C\CC3)[C@H]1O4
IC50 [3]: 4.73 µM | IC50 [4]: 4.73 µM

CO[C@H]1/C=C/C=C/C=C/C[C@@H]2O[C@@](C)([C@H](O)[C@H]2C)[C@H]2CCC3=C(S2)C(=O)C=C(NC(=O)C1)C3=O
IC50 [1]: 10 µM | IC50 [2]: > 10 µM

CO[C@@H]1CC(=O)Nc2c(O)c3cc4c2[C@H](/C=C/C=C/C[C@H](O)[C@H](C)[C@@H](OC(=O)[C@@H](C)NC(=O)C2CCCCC2)/C(C)=C\CC3)[C@H]1O4
IC50 [3]: 7.79 µM | IC50 [4]: 7.79 µM

C[C@@H]1[C@@H](O)[C@H](C)[C@@H](O)CCc2cc(O)cc(c2)NC(=O)C[C@@H](O)/C=C/C=C/C=C/C[C@@H]1O
IC50 [1]: 10 µM | IC50 [2]: > 10 µM

CO[C@H]1/C=C/C=C/C=C/C[C@H](OC(=O)[C@@H](C)NC(=O)C2CCCCC2)[C@H](C)[C@@H](O)/C(C)=C\CCC2=CC(=O)C(SC)=C(NC(=O)C1)C2=O
IC50 [5]: 0.1 µM

CO[C@@H]1CC(=O)Nc2c(O)c3cc4c2[C@H](/C=C/C=C/C[C@H](OC(=O)[C@@H](C)NC(=O)C2CCCCC2)[C@H](C)[C@@H](O)/C(C)=C\CC3)[C@H]1O4
IC50 [3]: 3.99 µM | IC50 [4]: 3.99 µM

CO[C@H]1/C=C/C=C/C=C/C[C@H](OC(=O)[C@@H](C)NC(=O)C2CCCCC2)[C@H](C)[C@@H](O)/C(C)=C\CCc2c(O)c(cc(O)c2SC)NC(=O)C1
IC50 [5]: 0.2 µM

CO[C@H]1/C=C/C=C/C=C/C[C@H](OC(=O)[C@@H](C)NC(=O)C2CCCCC2)[C@H](C)C(=O)/C(C)=C\CCC2=CC(=O)C=C(NC(=O)C1)C2=O
IC50 [5]: > 10 µM

CO[C@@H]1CC(=O)Nc2c(O)c3cc4c2[C@H](/C=C/C=C/C[C@H](OC(=O)[C@@H](C)NC(=O)C2=CCCCC2)[C@H](C)[C@@H](O)/C(C)=C\CC3)[C@H]1O4
IC50 [3]: > 10 µM | IC50 [4]: > 10 µM

CO[C@H]1/C=C/C=C/C=C/C[C@H](OC(=O)[C@@H](C)NC(=O)C2CCCCC2)[C@H](C)C(=O)/C(C)=C\CCc2cc(O)cc(c2O)NC(=O)C1
IC50 [5]: > 10 µM

CO[C@H]1/C=C/C=C/C=C/C[C@H](OC(=O)[C@@H](C)NC(=O)C2CCCCC2)[C@H](C)[C@@H](O)/C=C\CCc2cc(O)cc(c2)NC(=O)C1
IC50 [5]: 0.86 µM

CO[C@@H]1CC(=O)Nc2c(O)c3cc4c2[C@H](/C=C/C=C\C[C@H](OC(=O)[C@@H](C)NC(=O)C2CCCCC2)[C@H](C)[C@@H](O)/C(C)=C\CC3)[C@H]1O4
IC50 [3]: 6.9 µM | IC50 [4]: 6.9 µM

CO[C@@H]1CC(=O)Nc2c(O)c3cc4c2[C@H](/C=C/C=C/C[C@H](OC(=O)[C@@H](C)NC(=O)CC(C)C)[C@H](C)[C@@H](O)/C(C)=C\CC3)[C@H]1O4
IC50 [3]: > 10 µM | IC50 [4]: > 10 µM

C/C1=C/CCc2cc(O)cc(c2)NC(=O)C[C@@H](O)/C=C/C=C/C=C/C[C@H](O)C[C@H]1O
IC50 [5]: > 10 µM

CO[C@H]1/C=C/C=C/C=C/C[C@H](OC(=O)[C@@H](C)NC(=O)C2CCCCC2)[C@H](C)[C@@H](O)/C(C)=C\CCC2=C(SC)C(=O)C=C(NC(=O)C1)C2=O
IC50 [5]: 0.055 µM

CO[C@@H]1CC(=O)Nc2c(O)c3cc4c2[C@H](/C=C/C=C/C[C@H](OC(=O)[C@@H](C)NC(=O)CCC(C)C)[C@H](C)[C@@H](O)/C(C)=C\CC3)[C@H]1O4
IC50 [3]: > 10 µM | IC50 [4]: > 10 µM

CO[C@@H]1CC(=O)N2c3cc(O)cc4c3O[C@@H](/C=C/C=C/C[C@H](OC(=O)[C@@H](C)NC(=O)C3CCCCC3)[C@H](C)[C@@H](O)/C(C)=C\CC4)[C@H]12
IC50 [3]: 8.29 µM | IC50 [4]: 8.29 µM
